Data from patent US9546167B2, “Radiosynthesis of tau radiopharmaceuticals” (The General Hospital Corporation, priority 2013, dated 2017).
One block for each compound: values may come before it.

How the values were obtained:
[1] = solubility of precursor in reaction / organic solvents; type: physicochemical
Method: The uncorrected radiochemical yield (RCY) of [^18F]T807 was 14±3% (n=3) and the total synthesis time was 60 minutes, including formulation. The product was prepared consistently with >95% radiochemical purity and the specific activity at the end of synthesis was 216±60 GBq/μmol (5837±1621 mCi/μmol). […] Therefore, the precursor could be added remotely to the reaction vial with minimal volume and eliminated the possibility of the precursor precipitating out of solution before use. Moreover, the fluorination condition simultaneously removed the t-BOC protecting group so there was no need for an additional deprotection step. Secondly, without being bound by any theory, it is thought that the protecting group may also be responsible for the higher radiochemical yields by inhibiting side reactions with the —NH of the indole moiety.

[2] = lipophilicity of precursor (HPLC analysis remark); type: physicochemical; settings: qualitative
Method: (§1) Three consecutive productions of [^18F]T807 were carried out to validate this radiopharmaceutical for human use. […] Due to the increased lipophilicity of 1b, an additional HPLC analysis was performed using an X-Select HSS T3 column (4.6×150 mm, 3.5 μm) and eluted with 50% CH3OH/H2O (pH 2 adjusted with HCl) with a flow rate of 1.2 mL/min, monitored at λ=254 nm. Radio-TLC was performed to verify the radiochemical purity of [^18F]T807 using silica gel plates and 80:20 (v/v) CH2Cl2:CH3OH mobile phase. Radio-TLC confirmed high radiochemical purity (>97%). […] The half-life was verified to be 109.7 minutes, as determined by a dose calibrator, and no long lived isotopes were observed (5 days), as determined by analysis on a HPGE detector after ^18F-decay. Formulated [^18F]T807 was free of pyrogens (Charles River Endosafe® PTS), sterile, and passed the Kryptofix® spot test (<50 μg/mL). […] Using this new methodology, [^18F]T807 was successfully validated for human PET studies, meeting all FDA and USP requirements for a PET radiopharmaceutical.

[3] = system: hyperphosphorylated tau fibrillar aggregates; settings: PET imaging, human subjects; cited from earlier work
[4] = stability of formulated product by HPLC and radio-TLC, clarity and pH; type: physicochemical; settings: over a period of 6 hours
Method: as §1

[5] = system: paired helical filaments of tau (PHF-tau); settings: cited from earlier work

SMILES: CC(=C(C#N)C#N)c1ccc2cc(N(C)CCF)ccc2c1 [[^18F]FDDNP]
distinction between amyloid-β plaques and tau [3]: does not distinguish
imaging of hyperphosphorylated tau fibrillar aggregates [3]: effective

SMILES: [18F]c1ccc(-c2ccc3c(c2)[nH]c2ccncc23)cn1 [[^18F]T807]
pH [4]: 5.5
stability as measured by HPLC and radio-TLC [4]: maintained stability
potency in vitro for paired helical filaments of tau (PHF-tau) [5]: excellent
selectivity in vitro for PHF-tau over Aβ-plaques [5]: excellent

SMILES: [18F]CCC1CCN(c2ccn3c(n2)nc2ccccc23)CC1 [[^18F]T808, reference compound]
potency in vitro for paired helical filaments of tau (PHF-tau) [5]: excellent
selectivity in vitro for PHF-tau over Aβ-plaques [5]: excellent

Continued, values first:

solubility in most organic solvents [1]: only sparingly soluble
SMILES: O=[N+]([O-])c1ccc(-c2ccc3c(c2)[nH]c2ccncc23)cn1 [Compound 1a, 7-(6-nitropyridin-3-yl)-5H-pyrido[4,3-b]indole, reference compound]

solubility in the reaction solvent (DMSO) ([1]; compared with 1a): increased
lipophilicity [2]: increased
SMILES: CC(C)(C)OC(=O)n1c2ccncc2c2ccc(-c3ccc([N+](=O)[O-])nc3)cc21 [Compound 1b, tert-butyl 7-(6-nitropyridin-3-yl)-5H-pyrido[4,3-b]indole-5-carboxylate]
